The text below walks through data of US20240182492A1, “AZAHETEROARYL COMPOUND, PREPARATION METHOD THEREFOR, AND APPLICATION THEREOF” (SHANGHAI BLUERAY BIOPHARMA CO., LTD., priority 2021, published 2024).

Assay [1] relates to trimethylation level of histone H3K27 in G401 cells. The assay can be described thus: ELISA (H3K27 trimethylation) analysis in G401 cells. The assay is classed as cell-based. The note with it: H3K27me3 normalized by H3. The protocol: Example 54: ELISA (H3K27 Trimethylation) Analysis
Representative compounds of the present disclosure are diluted in DMSO with 3-fold gradient, and 10 concentration gradients are tested per compound. The maximum testing concentration is 10 μM. The compound is diluted 200-fold into G401 cells cultured in 96-well plates (the final concentration of DMSO is 0.5%). After the cells are cultured for 72 hours, the trimethylation level of histone H3K27 is detected by ELISA method.
Histone extraction: compound-treated cells in a 96-well plate are washed 3 times with 1×PBS (10×PBS buffer (80 g NaCl (Sigma, Product No. S3014), 2 g KCl (Sigma, Product No. 60128), 14.4 g Na2HAPO4 (Sigma, Product No. S5136) and 2.4 g KH2PO4 (Sigma, Product No. P9791) are added to 1 L water, pH to 7.4), and 100 μL of 0.4N HCl is added to each well. The 96-well plate is placed at 4° C. and gently shaken for 2 hours to lyse the cells. The cell lysate is then neutralized with 80 μL of neutralization buffer (0.5M disodium hydrogen phosphate, pH 12.5, 2.5 mM DTT; 1% cocktail (Sigma, Product No. P8340) (mixing the cell lysate and neutralization buffer thoroughly).
ELISA detection method: the cell lysates are transferred in parallel to two 384-well assay plates (PerkinElmer, OptiPlate-384HB, Product No. 6007290). One plate is used to detect the trimethylation level of H3K27, and the other plate is used to measure the level of H3. PBS is adjusted to a final volume of 50 μL/well. The wells are coated overnight at 4° C. On the next day, the solution in the wells was discarded. TBST buffer (1 xTBS (10×TBS: 24.2 g Tris (Sigma, Product No. T6066) and 80 g NaCl (Sigma, Product No. S3014) are added to 1 L water, and pH is adjusted to 7.6 with HCl) and 0.1% Tween-20) is used to wash it 5 times, and the water is dried on absorbent papers. 70 μL of blocking buffer (TBST, 5% BSA) is added to the coated reaction wells, and the wells are incubated for 1 hour at room temperature. The blocking buffer was discarded, and the primary antibody is added (30 μL/well). The required primary antibodies are diluted with blocking buffer, and the dilution ratios were as follows: anti-H3K27me3 antibody (Cell Signaling Technology, Product No. 9733), 1:2000 dilution; anti-H3 antibody (Cell Signaling Technology, Product No. 4499), 1:10000 dilution. After adding the primary antibody, the wells are incubated at room temperature for 1 hour. After washing with TBST for 5 times, the water are dried. The secondary antibody (30 μL/well) is added to each reaction well, and the wells are incubated at room temperature for 1 hour. Secondary antibody (anti-rabbit antibody (Jackson ImmunoResearch, Product No. 111-035-003)) is used after dilution 2000-fold in blocking buffer. After 1 hour, it is washed with TBST and dried. 30 μL of ECL substrate (Pierce, Product No. 34080) is added to each well and centrifuged for 30 seconds at 2000 rpm. Signal of each sample is detected using Molecular Devices, SpectraMax. Data processing: H3K27 methylation readings are first normalized by H3 signal. 0.500 DM8)-treated sample is used as a control, and the inhibition percentage of the compound is calculated. The data is fitted to a dose-response curve using the GraphPad prisim5 program, obtaining the IC50 values of the test compounds.

Assay [2] concerns the target T1, EED protein (full-length, His6 tag) binding to H3K27me3 polypeptide (Homo sapiens, UniProt O75530).
T1 construct: The full-length EED protein (441 amino acids) with His6 tag
The assay can be described thus: AlphaScreen evaluation of blocking the binding of EED to H3K27Me3. The note with it: EED / biotinylated H3K27me3 peptide competition. On the procedure: Example 53: Evaluation of the Effect of the Compound in Blocking the Binding of EED to H3K27Me3 by AlphaScreen (a-Screening) Method
First, compound solutions with different concentration gradients are prepared. Compound powder is dissolved in DMSO to form mother liquor. 1.5 μL of the compound mother liquor is taken to 198.5 μL reaction buffer (25 mM HEPES (pH 8.0), 50 mM NaCl, 0.015% Tween 20, 0.5% BSA) and the solution is mix uniformly, and then 3-fold gradient dilution is performed with the above buffer containing 0.75% DMSO. 9 different test concentrations are set for the same compound. 5 μL of compounds with different concentration gradients was taken to ProxiPlate-384 Plus, White detection plate (PerkinElmer, 6008280), and 2 parallel replicates are set for each concentration gradient.
Next, a binding blocking reaction is performed. The full-length EED protein (441 amino acids) with His6 tag is diluted to 60 nM with the above buffer, and the biotinylated polypeptide fragment H3K27me3 (amino acids 19-33) (Biotinylated-H3K27me3) is diluted to 75 nM with the same buffer. 5 μL of 75 nM peptide fragments and 5 μL of 60 nM protein are transferred to the testing wells containing the compound respectively. The testing plate is sealed with a film, and is incubated for 30 minutes at room temperature.
Finally, AlphaScreen method is used for detection. Before use, nickel chelate acceptor beads and streptavidin donor beads (Perkin Elmer, product number 6760619M) are mixed into the above reaction buffer at a ratio of 1:1, and then 5 μL of the above pre-mixed testing solution is added to each testing well. The final concentration of the donor beads and acceptor beads is 5 μg/mL. The testing plate is covered with tin foil and placed at room temperature in the dark for 1 hour. Signals are read using an AlphaScreen detector on a Spectra max i3. The AlphaScreen signal is normalized according to the readings obtained from the positive control (maximum signal control) and negative control (minimum signal control) to give the inhibition rate of different concentrations of the compound. After that, non-linear regression analysis was performed with GraphPad Prism 5, and dose-response equation Y=Bottom+(Top−Bottom)/(1+10^((Log IC50−X)*HillSlope)) is used to make an inhibition curve, obtaining the IC50 value of each compound. […]

For assay [3], the system named is B-cell non-Hodgkin lymphoma cells KARPAS-422. The assay can be described thus: Cell proliferation analysis, KARPAS-422, 13 days, CellTiter-Glo. The class given is cell-based, Human. The protocol:
Example 55: Cell Proliferation Analysis
Human B-cell non-Hodgkin lymphoma cells KARPAS-422 S were cultured in culture flasks using standard cell culture conditions. The culture medium contains 15% fetal bovine serum (FBS, Invitrogen, product number 10099-141), 1% penicillin/streptomycin solution (P/S) RPMI-1640 (Invitrogen, product number 11875), and the culture flask is placed and cultured in a sterile incubator at 37° C., 95% relative humidity, and 5% CO2. In order to detect the effect of PRC2 inhibitors on cell proliferation, cells in the exponential growth phase were seeded into 96-well plates (Corning, product number 3904) at a density of 1×10^4 cells/well, and 100 μL of medium was added to each well. Subsequently, the compounds disclosed herein at different concentrations were added to the wells seeded with cells (9 concentration gradients were set for each compound, and the highest detection concentration was 10 μM, 3-fold gradient dilution), and 2 repeats in parallel were set for each treatment concentration. The final concentration of DMSO is 0.5%. Then the number of surviving cells was counted with Vi-CELL (Beckman Coulter) every 3-4 days. The cells counted each time were seeded into a new 96-well plate at the same density (1×10^4 cells/well). The wells were supplemented with fresh medium to 100 μL, and different concentrations of the compound were added at the same time. The cells were cultured until the 13th day, on which 100 μL of CellTiter-Glo (CellTiter-GloCellTiter-GloCellTiter-GloCTG) (Promega, Product No. G7573) was added to each well. The plate was placed for 10-20 minutes in the dark at room temperature, and Molecular Devices and SpectraMax i3X were used to read the luminous signal. The data were fitted to a dose-response curve using GraphPad prisim5 and the IC50 values of the tested compounds were obtained.
For orientation: In ATP-based viability assays light output follows the ATP content of the culture.

Where [4] appears, read: Homo sapiens, KARPAS-422, 312 h, Karpas-422, 13 days.

T1 sequence (O75530 whole entry): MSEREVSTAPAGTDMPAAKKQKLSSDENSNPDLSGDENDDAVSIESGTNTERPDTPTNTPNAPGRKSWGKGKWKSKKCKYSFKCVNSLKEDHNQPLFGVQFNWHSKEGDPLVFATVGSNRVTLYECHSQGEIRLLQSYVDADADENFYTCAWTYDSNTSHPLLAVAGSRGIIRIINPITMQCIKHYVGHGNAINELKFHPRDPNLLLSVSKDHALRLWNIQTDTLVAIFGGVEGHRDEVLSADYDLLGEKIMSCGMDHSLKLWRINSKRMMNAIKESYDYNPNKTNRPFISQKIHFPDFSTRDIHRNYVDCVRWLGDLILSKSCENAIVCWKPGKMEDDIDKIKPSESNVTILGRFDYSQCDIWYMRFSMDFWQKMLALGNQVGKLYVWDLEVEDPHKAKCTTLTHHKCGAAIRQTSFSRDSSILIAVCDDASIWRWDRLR

With `CCC(C)(O)c1ccc(-c2cnc(NCc3c(F)ccc4c3CCO4)n3cnnc23)c2ncnn12` (single isomer, unassigned) [Compound a], the 50% inhibitory concentration (IC50) was determined as 0.0012 µM in assay [1] (Homo sapiens, G-401, 72 h); 0.0054 µM in assay [2]; 0.0041 µM in assay [3] (setting [4]).
In the case of `CCC(C)(O)c1ccc(-c2cnc(NCc3c(F)ccc4c3CCO4)n3cnnc23)c2ncnn12` (single isomer, unassigned) [Compound b], the half-inhibitory concentration (IC50) in assay [1] (72 hours) was determined as 0.0017 µM; in assay [2], 0.0089 µM; in assay [3] (Karpas-422, 13 days) it was 0.0079 µM.
Consider `CC(O)(c1ccc(-c2cnc(NCc3c(F)ccc4c3CCO4)n3cnnc23)c2ncnn12)C(F)(F)F` (single isomer, unassigned) [Compound c], for which the IC50 in assay [1] (Homo sapiens, G-401, 72 h) turned out to be 0.0017 µM; in assay [2], 0.0025 µM; in assay [3] (setting [4]), 0.0095 µM.
Turning to `CC(O)(c1ccc(-c2cnc(NCc3c(F)ccc4c3CCO4)n3cnnc23)c2ncnn12)C(F)(F)F` (single isomer, unassigned) [Compound d], the IC50 in assay [1] (Homo sapiens, G-401, 72 hours) was 0.0047 µM; in assay [2], 0.0055 µM; in assay [3] (Homo sapiens, KARPAS-422, 312 h) it was 0.0087 µM.
With `CCC(O)c1ccc(-c2cnc(NCc3c(F)ccc4c3CCO4)n3cnnc23)c2ncnn12` (single isomer, unassigned) [Compound e], the half-inhibitory concentration (IC50) in assay [1] (72 hours) turned out to be 0.0004 µM; in assay [2], 0.0064 µM; in assay [3] (Karpas-422, 13 days), 0.002 µM.
The matching figures for `CCC(O)c1ccc(-c2cnc(NCc3c(F)ccc4c3CCO4)n3cnnc23)c2ncnn12` (single isomer, unassigned) [Compound f]: 0.0013 µM, 0.0066 µM and 0.0054 µM.
For `CC(O)(CF)c1ccc(-c2cnc(NCc3c(F)ccc4c3CCO4)n3cnnc23)c2ncnn12` (single isomer, unassigned) [Compound g], the half-maximal inhibitory concentration (IC50) came out at 0.0006 µM in assay [1] (Homo sapiens, G-401, 72 h); 0.004 µM in assay [2]; 0.0015 µM in assay [3] (setting [4]).
As to `CC(O)(CF)c1ccc(-c2cnc(NCc3c(F)ccc4c3CCO4)n3cnnc23)c2ncnn12` (single isomer, unassigned) [Compound h], the IC50 in assay [1] (72 hours) is 0.0012 µM; in assay [2], 0.0048 µM; in assay [3] (Karpas-422, 13 days) it was 0.0025 µM.
On to `CC(O)(c1ccc(-c2cnc(NCc3c(F)ccc4c3CCO4)n3cnnc23)c2ncnn12)C(F)(F)F` (stereo not drawn) [1,1,1-trifluoro-2-(8-(5-(((5-fluoro-2,3-dihydrobenzofuran-4-yl)methyl)amino)-[1,2,4]triazolo[4,3-c]pyrimidin-8-yl)-[1,2,4]triazolo[1,5-a]pyridin-5-yl)propan-2-ol], for which the half-maximal inhibitory concentration (IC50) came to 0.0019 µM in assay [1] (Homo sapiens, G-401, 72 h); 0.0048 µM in assay [2]; 0.0088 µM in assay [3] (setting [4]).
For `OC(c1ccc(-c2cnc(NCc3c(F)ccc4c3CCO4)n3cnnc23)c2ncnn12)(C(F)F)C(F)F` [1,1,3,3-tetrafluoro-2-(8-(5-(((5-fluoro-2,3-dihydrobenzofuran-4-yl)methyl)amino)-[1,2,4]triazolo[4,3-c]pyrimidin-8-yl)-[1,2,4]triazolo[1,5-a]pyridin-5-yl)propan-2-ol], the 50% inhibitory concentration (IC50) came to 0.0012 µM in assay [1] (Homo sapiens, G-401, 72 h); 0.003 µM in assay [2]; 0.0049 µM in assay [3] (setting [4]).
With `CC(O)(c1ccc(-c2cnc(NCc3c(F)ccc4c3CCO4)n3cnnc23)c2ncnn12)C(F)F` (stereo not drawn) [1,1-difluoro-2-(8-(5-(((5-fluoro-2,3-dihydrobenzofuran-4-yl)methyl)amino)-[1,2,4]triazolo[4,3-c]pyrimidin-8-yl)-[1,2,4]triazolo[1,5-a]pyridin-5-yl)propan-2-ol], the IC50 in assay [1] (Homo sapiens, G-401, 72 h) was found to be 0.0015 µM; in assay [2], 0.0051 µM; in assay [3] (setting [4]) it was 0.0048 µM.
In turn, `Fc1ccc2c(c1CNc1ncc(-c3cccn4ncnc34)c3nncn13)CCO2` [8-([1,2,4]triazolo[1,5-a]pyridin-8-yl)-N-((5-fluoro-2,3-dihydrobenzofuran-4-yl)methyl)-[1,2,4]triazolo[4,3-c]pyrimidin-5-amine] gave a concentration for half-maximal inhibition (IC50) in assay [2] of 0.0047 µM.
`Cc1ccc(-c2cnc(NCc3c(F)ccc4c3CCO4)n3cnnc23)c2ncnn12` [N-((5-fluoro-2,3-dihydrobenzofuran-4-yl)methyl)-8-(5-methyl-[1,2,4]triazolo[1,5-a]pyridin-8-yl)-[1,2,4]triazolo[4,3-c]pyrimidin-5-amine]: in assay [2], the half-inhibitory concentration (IC50) is 0.0089 µM.
Consider `Cc1ccc(-c2cnc(NCc3c(F)ccc4c3[C@H]3C[C@H]3O4)n3cnnc23)c2ncnn12` [N-(((1aR,6bR)-5-fluoro-1a,6b-dihydro-1H-cyclopropeno[b]benzofuran-6-yl)methyl)-8-(5-methyl-[1,2,4]triazolo[1,5-a]pyridin-8-yl)-[1,2,4]triazolo[4,3-c]pyrimidin-5-amine], for which, in assay [2], the concentration for half-maximal inhibition (IC50) was 0.0035 µM.

What is called IC50 is the point on the concentration scale where inhibition reaches its midpoint. Low readings indicate inhibition by little substance, high ones a need for much substance.
